Data on 2 compounds can be found in patent US20230220339A1, “T CELL, PREPARATION METHOD FOR SAME, AND APPLICATIONS THEREOF” (BENETHERA (BEIJING) BIOTECHNOLOGY CO., LTD., priority 2020, published 2023).

The structures appear in SMILES notation.

Holding throughout (type): cell-based, mouse
Test [1] concerns DC2.4 cells. Briefly: AFM single cell force spectrum, T-DC adhesion (two-cell system). Particulars: Ryr2 blocked in Tconv; intensities even stronger than that of Treg, FIG. 14. As to the method: The atomic force microscope-based single cell force spectrum procedures were performed using JPK CellHesion device as described above (see “Alum interaction with dendritic cell membrane lipids is essential for its adjuvanticity” (Flach et al., Nat Med 17, 479-487, 2011) and “Strong adhesion by regulatory T cells induces dendritic cell cytoskeletal polarization and contact-dependent lethargy” (Chen et al., The Journal of experimental medicine, 2017)). Briefly, to measure T-DC adhesion in a two-cell system, DC2.4 cells were cultured on untreated glass plates. T cells were treated with 200 U/mL human IL-2 overnight. The glass plates were moved into an AFM compatible chamber and mounted on a machine table. Clean cantilevers were coated with CellTak (BD), and then stick an individual T cell on thefront end of the cantilever. The AFM cantilever carrying the individual T cell was lowered to allow T cell contact with a single DC and to interact for 15 s, and then moved upward until the two cells were completely separated. A force spectrum curve was obtained. The process was then repeated. […] Treg/Tconv contact-mediated inhibition of OT-II-DC adhesion was analyzed. […] For each SCFS experiment, a T-DC pair was used to generate force readings for each up-down cycle during a period of several minutes. […]

In test [2] the test system is m-calpain. Briefly: Calpain activity by digestion of the calpain substrate CMAC (flow cytometry). As to conditions: for calpain activity (digestion rate of CMAC) after Ryr activation: 4-CMC treatment, FIG. 7. As to the method:
Wherein calpain activity measurement procedure: To measure calpain activity, 10^5 T cells were incubated in 200 µL of medium containing 20 µM calpain substrate CMAC (t-BOC-Leu-Met, Thermo Fisher) in the dark at room temperature. After 5 min of incubation, the reaction was terminated with 1 % PFA (Biosharp) and the cells were immediately placed on ice. The fluorescent signal emitted from the digested substrate was measured as calpain activity by Fortessa flow cytometer through the Hoechst blue channel. In all experiments, the inhibitor JTV519 was added 30 min prior to the experiments, and activator 4-CmC and CMAC were added at the same time.
(In general: In flow cytometry, cells or beads pass a laser one at a time.)

For test [3], the system named is 3T3 and A20 cells. Briefly: 4-CmC-induced Ca^2+ signal in cells with or without FoxP3 overexpression. Particulars: FoxP3-transfected 3T3 and A20 cells vs non-FoxP3 overexpression group, HBSS without calcium ions, FIG. 24. The protocol:
For non-adherent cells, Treg, Tconv and A20 cells were stained with […] fluo-4 AM (Thermo Fisher) for 1 h at 37° C. After washing, the cells were adhered to poly-L-lysine coated (0.1 mg/mL; Sigma-Aldrich) round glass slides mounted in the sandwich home-made chamber at room temperature. After 15 min, excess non-adherent cells were removed by washing with buffer. For adherent cells, NIH-3T3 and Renca cells grown on glass slides were stained with […] fluo-4 AM (Thermo Fisher) for 1 hour at 37° C. The measurement chamber was then placed on an Olympus IX-73 microscope equipped with a 20-fold (numerical aperture: 0.8) or 40-fold (numerical aperture: 1.2) Olympus objective. Unless otherwise stated, Ca^2+ oscillation within 20 min was recorded at intervals of 6 s. […] For the stimulation experiments, Ca^2+ oscillation within 5 min was recorded at intervals of 1 s. […] The emission signal at 468 nm to 550 nm excited by the 488 nm laser was recorded with a charge coupled device camera (ORCA-AG, Hamamatsu). […] The mean fluorescence intensity changes over time in individual cells were analyzed using ImageJ and normalized with fluorescence intensity in the first frame (Fluo-4 F / F0). The peak of Ca^2+ oscillation of the individual cells was shown, and the standard deviation of Ca^2+ fluctuation intensity was calculated as Mean ± SEM. […]

For the compound `COc1ccc2c(c1)CN(C(=O)CCN1CCC(Cc3ccccc3)CC1)CCS2` [JTV519], the “contact of treated Tconv with dendritic cells (adhesion)” value in test [1] is given as “induced strong contact with dendritic cells”. Moreover, the “digestion of m-calpain substrate after JTV519 treatment” value in test [2] (Tconv, inhibitor added 30 min prior, FIG. 13) is recorded as “digestion of low m-calpain substrate”.

In the case of `Cc1cc(O)ccc1Cl` [4-CmC], the “calpain activity (digestion rate of CMAC) after Ryr activation” value in test [2] (Tconv cells) is “completely able to induce calpain activity”; in test [2] (Treg cells), “not sensitive”. In test [3], the “Ca^2+ signal driven by 4-CmC” value is given as “drives much less Ca^2+ signal”.
